Measured values from US11884671B2, “Purinone compounds and their use in treating cancer” (ASTRAZENECA AB, priority 2018, dated 2024).

What was measured:
[1] = molecular target: JAK3 (Homo sapiens (Human), UniProt P52333); test: JAK3 enzyme assay (Z'-LYTE); type: biochemical; conditions: 10 μM ATP, arithmetic mean of two or more experiments; for IC50: read-out: JAK3 enz pIC50 (converted)
Method: (§1) The inhibitory activity of compounds against AURKA, AURKB, JAK1, JAK2 and JAK3 was determined in Z′-LYTE® assays run by ThermoFisher Scientific as part of their SelectScreen® Biochemical Kinase Profiling Service. The Z′-LYTE® biochemical assay format employs a fluorescence-based, coupled-enzyme format and is based on the differential sensitivity of phosphorylated and non-phosphorylated peptides to proteolytic cleavage. The peptide substrate is labeled with two fluorophores—one at each end—that make up a FRET pair. In the primary reaction, the kinase transfers the gamma-phosphate of ATP to a single tyrosine, serine or threonine residue in a synthetic FRET-peptide. In the secondary reaction, a site-specific protease recognises and cleaves non-phosphorylated FRET-peptides. Phosphorylation of FRET-peptides suppresses cleavage by the Development Reagent. Cleavage disrupts FRET between the donor (i.e., coumarin) and acceptor (i.e., fluorescein) fluorophores on the FRET-peptide, whereas uncleaved, phosphorylated FRET-peptides maintain FRET. A ratiometric method, which calculates the ratio (the Emission Ratio) of donor emission to acceptor emission after excitation of the donor fluorophore at 400 nm, is used to quantitate reaction progress. Both cleaved and uncleaved FRET-peptides contribute to the fluorescence signals and therefore to the Emission Ratio. The extent of phosphorylation of the FRET-peptide can be calculated from the Emission Ratio.
(§2) 10 point three-fold dilution compound concentration-response curves, with a top concentration of 10 μM were generated from 10 mM stocks of compound solubilised in DMSO. All assays were performed in black, non-binding, low volume Corning 384-well plates (cat. #4514, Corning), in a total reaction volume of 10 μL and 1% (v/v) final DMSO concentration. […] The kinase reaction was then quenched by the addition of 5 μL of Development Reagent (ThermoFisher Scientific proprietary). […] IC50 values were calculated using XLfit software (IDBS Ltd, Surrey, UK), with the curve fit to model number 205 (sigmoidal dose-response model).
JAK3: The 2×JAK3/Tyr 06 (ThermoFisher Scientific proprietary) mixture was prepared in 50 mM HEPES pH 7.5. 0.01% BRIJ-35, 10 mM MgCl2, 1 mM EGTA. […] After the 1 hour Kinase Reaction incubation, 5 μL of a 1:128 dilution of Development Reagent was added.

[2] = molecular target: AURKA (Aurora A) (Homo sapiens (Human), UniProt O14965); test: Aurora-A enzyme assay (Z'-LYTE); type: biochemical; conditions: 10 μM ATP, arithmetic mean of two or more experiments; for IC50: read-out: AurA enz pIC50 (converted)
Chain of AURKA (Aurora A) (O14965 whole entry): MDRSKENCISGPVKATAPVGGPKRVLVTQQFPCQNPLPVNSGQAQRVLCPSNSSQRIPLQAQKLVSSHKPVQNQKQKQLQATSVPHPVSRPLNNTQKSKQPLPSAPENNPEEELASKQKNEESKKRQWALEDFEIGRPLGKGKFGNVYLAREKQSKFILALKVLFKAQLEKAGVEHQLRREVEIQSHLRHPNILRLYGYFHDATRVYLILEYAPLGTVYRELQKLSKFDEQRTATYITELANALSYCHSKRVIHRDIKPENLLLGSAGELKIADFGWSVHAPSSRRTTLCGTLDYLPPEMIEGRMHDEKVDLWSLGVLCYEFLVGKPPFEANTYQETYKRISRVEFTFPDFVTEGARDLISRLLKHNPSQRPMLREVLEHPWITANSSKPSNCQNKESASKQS
Method: as §1, §2
Aurora A (AurA): The 2×AURKA (Aurora A)/Ser/Thr 01 (ThermoFisher Scientific proprietary) mixture was prepared in 50 mM HEPES pH 7.5, 0.01% BRIJ-35, 10 mM MgCl2, 1 mM EGTA. […] After the 1 hour Kinase Reaction incubation, 5 μL of a 1:4096 dilution of Development Reagent was added.

[3] = molecular target: DNAPK (Homo sapiens (Human), UniProt P78527); test: DNAPK cellular potency assay (DNA-PK cell), pS2056-DNAPK ELISA in irradiated A549 cells; type: cell-based; conditions: 8 Gy radiation, arithmetic mean of two or more experiments, read-out: DNA-PK cell pIC50 (converted)
Method: The DNAPK cell ELISA assay was performed in the A549 cell line. A549 cells were cultured in cell media composed of MEM-F12 (Minimum Essential Medium F12 Sigma #D6421), 10% (v/v) Foetal Calf Serum and 1% (v/v) 200 mM L-Glutamine. […] The following day the Greiner ELISA plates were washed 3× with PBS-T and blocked with 3% BSA/PBS for 2 h, before a further 3× wash with PBS-T.
The cell plates were then incubated for 1 h at 37° C. before receiving a radiation dose of 8 Gy (XRAD 320, table height 65). The cells were incubated for a further 1 h before removal of cell media. […] Cell lysates ([…]) were transferred to the DNAPK antibody-coated ELISA plates using a CyBio Felix liquid handling platform, and ELISA plates were incubated at 4° C. overnight.
The following day, ELISA plates were washed 3× with PBS-T and dispensed with in-house pS2056-DNAPK antibody (0.5 μg/mL in 3% BSA/PBS) at 20 ul/well.
The fluorescence intensity of individual wells was determined using a PerkinElmer EnVision plate reader.
Data was analysed and IC50 values were calculated using Genedata Screener® software (Genedata, Inc., Basel, Switzerland).

[4] = molecular target: JAK2 (Homo sapiens (Human), UniProt O60674); test: JAK2 enzyme assay (Z'-LYTE); type: biochemical; conditions: 25 μM ATP, arithmetic mean of two or more experiments; for IC50: read-out: JAK2 enz pIC50 (converted)
Chain of JAK2 (O60674 whole entry): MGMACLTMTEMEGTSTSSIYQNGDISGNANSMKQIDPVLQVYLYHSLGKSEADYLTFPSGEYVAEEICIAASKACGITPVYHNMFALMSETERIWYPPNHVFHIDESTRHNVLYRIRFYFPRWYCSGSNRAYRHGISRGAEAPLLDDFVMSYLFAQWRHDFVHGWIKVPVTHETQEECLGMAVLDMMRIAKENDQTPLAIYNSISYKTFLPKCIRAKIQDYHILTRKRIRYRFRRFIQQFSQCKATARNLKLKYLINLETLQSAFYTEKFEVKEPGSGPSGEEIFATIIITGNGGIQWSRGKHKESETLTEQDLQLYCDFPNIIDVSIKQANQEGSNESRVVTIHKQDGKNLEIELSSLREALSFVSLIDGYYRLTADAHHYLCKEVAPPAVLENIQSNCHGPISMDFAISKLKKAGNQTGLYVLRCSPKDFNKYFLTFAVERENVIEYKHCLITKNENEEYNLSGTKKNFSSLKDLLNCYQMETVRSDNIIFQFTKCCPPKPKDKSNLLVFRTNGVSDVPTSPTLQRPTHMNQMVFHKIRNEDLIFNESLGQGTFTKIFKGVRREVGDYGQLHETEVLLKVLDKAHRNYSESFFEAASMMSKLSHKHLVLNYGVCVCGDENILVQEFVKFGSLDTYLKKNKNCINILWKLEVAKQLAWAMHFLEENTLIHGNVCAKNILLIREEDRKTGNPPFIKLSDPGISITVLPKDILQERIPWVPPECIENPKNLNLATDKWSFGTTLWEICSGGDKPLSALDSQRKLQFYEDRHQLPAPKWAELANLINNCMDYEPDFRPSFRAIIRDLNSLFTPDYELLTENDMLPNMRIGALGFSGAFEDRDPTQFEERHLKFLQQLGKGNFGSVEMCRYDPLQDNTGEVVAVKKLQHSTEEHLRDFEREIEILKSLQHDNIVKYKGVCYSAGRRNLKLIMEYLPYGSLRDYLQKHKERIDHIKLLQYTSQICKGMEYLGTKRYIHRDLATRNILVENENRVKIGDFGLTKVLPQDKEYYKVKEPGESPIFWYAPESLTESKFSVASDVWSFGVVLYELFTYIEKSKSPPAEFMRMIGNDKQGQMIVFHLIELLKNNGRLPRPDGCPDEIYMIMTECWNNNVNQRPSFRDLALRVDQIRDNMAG
Method: as §1, §2
JAK2: The 2×JAK2/Tyr 06 (ThermoFisher Scientific proprietary) mixture was prepared in 50 mM HEPES pH 7.5, 0.01% BRIJ-35, 10 mM MgCl2, 1 mM EGTA. […] After the 1 hour Kinase Reaction incubation, 5 μL of a 1:128 dilution of Development Reagent was added.

[5] = molecular target: AURKB (Aurora B) (Homo sapiens (Human), UniProt Q96GD4); test: Aurora-B enzyme assay (Z'-LYTE); type: biochemical; conditions: 75 μM ATP, arithmetic mean of two or more experiments; for IC50: read-out: AurB enz pIC50 (converted)
Chain of AURKB (Aurora B) (Q96GD4 whole entry): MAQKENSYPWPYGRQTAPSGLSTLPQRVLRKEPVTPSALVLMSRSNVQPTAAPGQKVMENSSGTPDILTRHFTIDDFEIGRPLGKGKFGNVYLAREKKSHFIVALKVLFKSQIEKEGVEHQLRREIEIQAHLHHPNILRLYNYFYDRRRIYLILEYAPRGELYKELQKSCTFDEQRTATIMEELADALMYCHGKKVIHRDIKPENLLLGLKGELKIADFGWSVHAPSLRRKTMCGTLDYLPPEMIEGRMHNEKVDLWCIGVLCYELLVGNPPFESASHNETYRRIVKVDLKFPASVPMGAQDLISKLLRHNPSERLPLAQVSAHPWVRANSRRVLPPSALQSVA
Method: as §1, §2
Aurora B (AurB): The 2×AURKB (Aurora B)/Ser/Thr 01 (ThermoFisher Scientific proprietary) mixture was prepared in 50 mM HEPES pH 7.5, 0.01% BRIJ-35, 10 mM MgCl2, 1 mM EGTA. […] After the 1 hour Kinase Reaction incubation, 5 μL of a 1:4096 dilution of Development Reagent was added.

Chain of JAK3 (P52333 whole entry): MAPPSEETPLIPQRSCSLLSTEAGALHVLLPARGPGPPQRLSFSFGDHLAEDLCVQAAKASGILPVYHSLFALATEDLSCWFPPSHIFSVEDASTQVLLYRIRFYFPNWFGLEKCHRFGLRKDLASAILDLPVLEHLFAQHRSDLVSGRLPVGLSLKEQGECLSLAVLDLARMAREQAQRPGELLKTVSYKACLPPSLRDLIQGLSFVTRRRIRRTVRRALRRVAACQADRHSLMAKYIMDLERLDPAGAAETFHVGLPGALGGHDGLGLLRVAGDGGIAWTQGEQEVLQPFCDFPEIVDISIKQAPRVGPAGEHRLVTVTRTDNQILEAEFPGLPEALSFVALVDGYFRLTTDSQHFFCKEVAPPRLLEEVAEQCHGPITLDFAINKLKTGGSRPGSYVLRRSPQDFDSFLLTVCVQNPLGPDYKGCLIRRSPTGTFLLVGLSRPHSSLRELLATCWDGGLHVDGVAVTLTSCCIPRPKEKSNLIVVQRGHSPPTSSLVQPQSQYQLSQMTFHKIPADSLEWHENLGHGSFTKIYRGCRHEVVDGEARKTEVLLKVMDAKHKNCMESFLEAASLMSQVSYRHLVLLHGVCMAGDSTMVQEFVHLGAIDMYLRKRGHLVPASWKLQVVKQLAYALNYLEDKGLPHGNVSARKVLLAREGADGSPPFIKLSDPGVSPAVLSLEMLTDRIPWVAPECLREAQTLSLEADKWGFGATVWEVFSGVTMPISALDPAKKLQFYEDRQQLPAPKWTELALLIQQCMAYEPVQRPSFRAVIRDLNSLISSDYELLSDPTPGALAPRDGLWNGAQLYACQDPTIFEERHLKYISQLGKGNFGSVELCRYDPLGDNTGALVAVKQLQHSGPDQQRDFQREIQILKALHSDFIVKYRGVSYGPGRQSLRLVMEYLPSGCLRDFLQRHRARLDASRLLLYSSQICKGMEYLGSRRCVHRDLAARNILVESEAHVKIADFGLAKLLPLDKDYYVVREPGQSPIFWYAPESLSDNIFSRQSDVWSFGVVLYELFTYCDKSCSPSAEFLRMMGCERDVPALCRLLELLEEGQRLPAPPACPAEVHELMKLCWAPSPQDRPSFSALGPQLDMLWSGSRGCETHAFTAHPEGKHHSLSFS

| Structure (SMILES) | IC50 [1] | IC50 [2] | IC50 [3] | IC50 [4] | IC50 [5] | JAK3 enz pIC50 [1] | AurA enz pIC50 [2] | JAK2 enz pIC50 [4] | AurB enz pIC50 [5] |
| --- | --- | --- | --- | --- | --- | --- | --- | --- | --- |
| Cc1cc2ncccc2cc1Nc1ncc2c(n1)n([C@H]1CC[C@@H](O)CC1)c(=O)n2C [Example 11, 9-((1s,4s)-4-hydroxycyclohexyl)-7-methyl-2-((7-methylquinolin-6-yl)amino)-7,9-dihydro-8H-purin-8-one] | > 10000 nM | > 10000 nM | 20 nM | > 10000 nM | > 10000 nM | – | – | – | – |
| Cc1cc2nnccc2cc1Nc1ncc2c(n1)n([C@@H]1CCCOC1)c(=O)n2C [Example 25, (R)-7-methyl-2-((7-methylcinnolin-6-yl)amino)-9-(tetrahydro-2H-pyran-3-yl)-7,9-dihydro-8H-purin-8-one] | – | – | 39.8 nM | – | – | <5 | <5 | <5 | <5 |
| Cc1cc2nnccc2cc1Nc1ncc2c(n1)n([C@@H]1CCOC1)c(=O)n2C [Example 23, (R)-7-methyl-2-((7-methylcinnolin-6-yl)amino)-9-(tetrahydrofuran-3-yl)-7,9-dihydro-8H-purin-8-one] | – | – | 63.1 nM | – | – | <5 | <5 | <5 | <5 |
| Cc1cc2nnccc2cc1Nc1ncc2c(n1)n([C@H]1CC[C@@H](O)CC1)c(=O)n2C [Example 12, 9-((1s,4s)-4-hydroxycyclohexyl)-7-methyl-2-((7-methylcinnolin-6-yl)amino)-7,9-dihydro-8H-purin-8-one] | – | – | 20 nM | – | – | <5 | <5 | <5 | <5 |
| Cc1cc2nccnc2cc1Nc1ncc2c(n1)n([C@H]1CC[C@H](O)CC1)c(=O)n2C [Example 10, 9-((1r,4r)-4-hydroxycyclohexyl)-7-methyl-2-((7-methylquinoxalin-6-yl)amino)-7,9-dihydro-8H-purin-8-one] | > 10000 nM | > 10000 nM | 10 nM | > 10000 nM | > 10000 nM | – | – | – | – |
| Cc1cc2nnccc2cc1Nc1ncc2c(n1)n([C@H]1CC[C@H](O)CC1)c(=O)n2C [Example 7, 9-((1r,4r)-4-hydroxycyclohexyl)-7-methyl-2-((7-methylcinnolin-6-yl)amino)-7,9-dihydro-8H-purin-8-one] | – | – | 50.1 nM | – | – | <5 | <5 | <5 | <5 |
| Cc1cc2nccnc2cc1Nc1ncc2c(n1)n([C@H]1CCOC1)c(=O)n2C [Example 22, (S)-7-methyl-2-((7-methylquinoxalin-6-yl)amino)-9-(tetrahydrofuran-3-yl)-7,9-dihydro-8H-purin-8-one] | – | – | 25.1 nM | – | – | <5 | <5 | <5 | <5 |
| Cc1cc2ncccc2cc1Nc1ncc2c(n1)n([C@H]1CC[C@@](C)(N)CC1)c(=O)n2C [Example 39, 9-((1s,4s)-4-amino-4-methylcyclohexyl)-7-methyl-2-((7-methylquinolin-6-yl)amino)-7,9-dihydro-8H-purin-8-one] | > 10000 nM | > 10000 nM | 79.4 nM | > 10000 nM | > 10000 nM | – | – | – | – |
| Cc1cc2nccnc2cc1Nc1ncc2c(n1)n([C@H]1CCCOC1)c(=O)n2C [Example 28, (S)-7-methyl-2-((7-methylquinoxalin-6-yl)amino)-9-(tetrahydro-2H-pyran-3-yl)-7,9-dihydro-8H-purin-8-one] | – | – | 15.8 nM | – | – | <5 | 5.3 | <5 | <5 |
| CC(=O)N1CCC(n2c(=O)n(C)c3cnc(Nc4cc5nccnc5cc4C)nc32)CC1 [Example 2, 9-(1-acetylpiperidin-4-yl)-7-methyl-2-((7-methylquinoxalin-6-yl)amino)-7,9-dihydro-8H-purin-8-one] | – | – | 50.1 nM | – | – | <5 | <5 | <5 | <5 |
| Cc1cnc2cc(Nc3ncc4c(n3)n(C3CCOCC3)c(=O)n4C)c(C)cc2n1 [Example 33, 2-((2,7-dimethylquinoxalin-6-yl)amino)-7-methyl-9-(tetrahydro-2H-pyran-4-yl)-7,9-dihydro-8H-purin-8-one] | > 10000 nM | > 10000 nM | 126 nM | > 10000 nM | > 10000 nM | – | – | – | – |
| Cc1cc2nccnc2cc1Nc1ncc2c(n1)n([C@H]1CC[C@@](C)(O)CC1)c(=O)n2C [Example 19, 9-((1s,4s)-4-hydroxy-4-methylcyclohexyl)-7-methyl-2-((7-methylquinoxalin-6-yl)amino)-7,9-dihydro-8H-purin-8-one] | > 10000 nM | > 10000 nM | 25.1 nM | > 10000 nM | > 10000 nM | – | – | – | – |
| Cc1cc2nccc(C)c2cc1Nc1ncc2c(n1)n([C@H]1CC[C@H](O)CC1)c(=O)n2C [Example 8, 2-((4,7-dimethylquinolin-6-yl)amino)-9-((1r,4r)-4-hydroxycyclohexyl)-7-methyl-7,9-dihydro-8H-purin-8-one] | > 10000 nM | > 10000 nM | 10 nM | > 10000 nM | > 10000 nM | – | – | – | – |
| Cc1cc2ncccc2cc1Nc1ncc2c(n1)n([C@H]1CC[C@H](O)CC1)c(=O)n2C [Example 6, 9-((1r,4r)-4-hydroxycyclohexyl)-7-methyl-2-((7-methylquinolin-6-yl)amino)-7,9-dihydro-8H-purin-8-one] | – | – | 5.01 nM | – | – | <5 | <5 | <5 | <5 |
| COc1ccnc2cc(C)c(Nc3ncc4c(n3)n([C@H]3CC[C@H](O)CC3)c(=O)n4C)cc12 [Example 9, 9-((1r,4r)-4-hydroxycyclohexyl)-2-((4-methoxy-7-methylquinolin-6-yl)amino)-7-methyl-7,9-dihydro-8H-purin-8-one] | – | – | 7.94 nM | – | – | <5 | <5.1 | <5 | <5 |
